From US20240246913A1, “2-CARBOXYL-INDOLE INHIBITORS OF METALLO-BETA-LACTAMASES” (Oxford University Innovation Limited, priority 2021, published 2024)
Read-outs that look alike come from different tables or passages of the source.

Tests used:
Assay type in all cases: biochemical
VIM-2 = VIM-2 (Escherichia coli, UniProt Q5U7L7); experiment: MBL inhibition, FC-5 fluorescence assay, VIM-2
Procedure: (§1) Inhibitors were tested using a panel of the clinically relevant B1 MBLs (NDM-1, VIM-1, -2 and IMP-1). Activities were assayed by monitoring the release of a fluorophore following the enzymatic breakdown of the cephalosporin FC-5 (https://pubs.acs.org/doi/abs/10.1021/jm400769b). FC-5 assays were conducted in clear bottomed 384 black well microplates (Greiner); the initial rate of reaction was assessed by monitoring the fluorescence intensity (λex=380 nm and λem=460 nm) using a Pherstar FS (BMG LabTech) plate reader. Initial rates of reaction were determined and dose-response analyses conducted in GraphPad Prism. Dose-response curves were fitted using the log(inhibitor) vs normalized response—variable slope model of GraphPad Prism 12. Each concentration point for routine screening was conducted with 4 intra-plate replicates.

NDM-1 = NDM-1 (Klebsiella pneumoniae, UniProt C7C422); experiment: MBL inhibition, FC-5 fluorescence assay, NDM-1
Procedure: as §1

IMP-1 = IMP-1 (Serratia marcescens, UniProt P52699); experiment: MBL inhibition, FC-5 fluorescence assay, IMP-1
Procedure: as §1

VIM-1 = VIM-1 (Pseudomonas aeruginosa, UniProt A0A0F7KYQ8); experiment: MBL inhibition, FC-5 fluorescence assay, VIM-1
Procedure: as §1

[1] = FC-5 cephalosporin substrate, ranges of obtained pIC50, read-out: pIC50 VIM-2 (converted)
[2] = FC-5 cephalosporin substrate, fluorescence, ranges of obtained pIC50, read-out: pIC50 NDM-1 (converted)
[3] = FC-5 cephalosporin substrate, fluorescence, ranges of obtained pIC50, read-out: pIC50 IMP-1 (converted)
[4] = FC-5 cephalosporin substrate, ranges of obtained pIC50, read-out: pIC50 VIM-1 (converted)
[5] = pIC50 VIM-2, FC-5 cephalosporin substrate, ranges of obtained pIC50
[6] = pIC50 VIM-1, FC-5 cephalosporin substrate, ranges of obtained pIC50

Chain of IMP-1 (P52699 19-246, looked up, species assumed): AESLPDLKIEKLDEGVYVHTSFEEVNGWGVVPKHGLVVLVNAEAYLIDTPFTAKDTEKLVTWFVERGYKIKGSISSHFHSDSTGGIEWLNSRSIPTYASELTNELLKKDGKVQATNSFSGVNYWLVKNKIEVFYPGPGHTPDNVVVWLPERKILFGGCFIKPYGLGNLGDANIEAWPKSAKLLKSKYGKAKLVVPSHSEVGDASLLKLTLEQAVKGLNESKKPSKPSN
Chain of NDM-1 (C7C422 29-270, looked up, species assumed): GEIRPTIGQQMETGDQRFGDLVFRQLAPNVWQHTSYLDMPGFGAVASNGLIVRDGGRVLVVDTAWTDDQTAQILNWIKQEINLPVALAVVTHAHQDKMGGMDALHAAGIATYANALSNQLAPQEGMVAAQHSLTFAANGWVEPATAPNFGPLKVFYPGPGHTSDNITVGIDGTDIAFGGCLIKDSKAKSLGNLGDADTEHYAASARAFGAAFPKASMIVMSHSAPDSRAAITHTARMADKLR

CC(CC(=O)NCCc1c[nH]cn1)c1cccc2c(-c3ccc(CS(C)(=O)=O)c(F)c3)c(C(=O)O)[nH]c12 (racemic) [IC-104, 3-[3-Fluoro-4-(methanesulfonylmethyl)phenyl]-7-(1-{[2-(1H-imidazol-4-yl)ethyl]carbamoy}propan-2-yl)-1H-indole-2-carboxylic acid]
IC50 (VIM-2; [1]): > 0.01 µM
IC50 (NDM-1; [2]): 0.001 to 0.01 µM
IC50 (IMP-1; [3]): > 0.01 µM
IC50 (VIM-1; [4]): > 0.01 µM

C[C@@H](c1cccc2c(-c3cnc(N)nc3)c(C(=O)O)[nH]c12)N1C[C@]2(C[C@@H](CN)C2)OC1=O [IC-42, 7-((S)-1-((2S,4r)-2-(aminomethyl)-6-oxo-5-oxa-7-azaspiro[3.4]octan-7-yl)ethyl)-3-(2-aminopyrimidin-5-yl)-1H-indole-2-carboxylic acid]
IC50 (VIM-2; [1]): 0.0001 to 0.001 µM
IC50 (NDM-1; [2]): 0.0001 to 0.001 µM
IC50 (IMP-1; [3]): > 0.01 µM
IC50 (VIM-1; [4]): 0.001 to 0.01 µM

CC(c1cccc2c(-c3ccc(CS(C)(=O)=O)c(F)c3)c(C(=O)O)[nH]c12)N1CCNCC1 (centres unmarked) [IC-12, 3-(3-Fluoro-4-((methylsulfonyl)methyl)phenyl)-7-(1-(piperazin-1-yl)ethyl)-1H-indole-2-carboxylic acid]
IC50 (VIM-2; [5]): 0.001 to 0.01 µM
IC50 (NDM-1): > 0.01 µM
IC50 (IMP-1): > 0.01 µM
IC50 (VIM-1; [6]): > 0.01 µM

CC(c1cccc2c(-c3ccc(CS(C)(=O)=O)c(Cl)c3)c(C(=O)O)[nH]c12)n1cc(CCCN)nn1 (centres unmarked) [IC-10, 7-[1-[4-(3-Aminopropyl)triazol-1-yl]ethyl]-3-[3-chloro-4-(methylsulfonylmethyl)phenyl]-1H-indole-2-carboxylic acid]
IC50 (VIM-2; [1]): < 0.0001 µM
IC50 (NDM-1; [2]): 0.0001 to 0.001 µM
IC50 (IMP-1; [3]): > 0.01 µM
IC50 (VIM-1; [4]): > 0.01 µM

C[C@@H](c1cccc2c(-c3cn[nH]c3)c(C(=O)O)[nH]c12)N1C[C@]2(C[C@@H](CN)C2)OC1=O [IC-43, 7-((S)-1-((2S,4r)-2-(aminomethyl)-6-oxo-5-oxa-7-azaspiro[3.4]octan-7-yl)ethyl)-3-(1H-pyrazol-4-yl)-1H-indole-2-carboxylic acid]
IC50 (VIM-2; [1]): 0.001 to 0.01 µM
IC50 (NDM-1; [2]): 0.0001 to 0.001 µM
IC50 (IMP-1; [3]): > 0.01 µM
IC50 (VIM-1; [4]): > 0.01 µM

CC(c1cccc2c(-c3ccc(CS(C)(=O)=O)c(F)c3)c(C(=O)O)[nH]c12)n1cc(CN2CC[C@H](N)C2)oc1=O (stereo partly drawn) [IC-81, 7-[1-[5-[[(3S)-3-Aminopyrrolidin-1-yl]methyl]-2-oxo-oxazol-3-yl]ethyl]-3-[3-fluoro-4-(methylsulfonylmethyl)phenyl]-1H-indole-2-carboxylic acid]
IC50 (VIM-2; [1]): 0.001 to 0.01 µM
IC50 (NDM-1; [2]): 0.0001 to 0.001 µM
IC50 (IMP-1; [3]): > 0.01 µM
IC50 (VIM-1; [4]): 0.001 to 0.01 µM

CC(OC(=O)Nc1ccc(CN)cc1)c1cccc2c(-c3ccc(CS(C)(=O)=O)c(F)c3)c(C(=O)O)[nH]c12 (centres unmarked) [IC-96, 7-(1-(((4-(Aminomethyl)phenyl)carbamoyl)oxy)ethyl)-3-(3-fluoro-4-((methylsulfonyl)methyl)phenyl)-1H-indole-2-carboxylic acid]
IC50 (VIM-2; [1]): 0.001 to 0.01 µM
IC50 (NDM-1; [2]): 0.001 to 0.01 µM
IC50 (IMP-1; [3]): > 0.01 µM
IC50 (VIM-1; [4]): > 0.01 µM

CC(c1nn[nH]n1)c1cccc2c(-c3ccc(CS(C)(=O)=O)c(F)c3)c(C(=O)O)[nH]c12 (centres unmarked) [IC-9, 7-(1-(2H-Tetrazol-5-yl)ethyl)-3-(3-fluoro-4-((methylsulfonyl)methyl)phenyl)-1H-indole-2-carboxylic acid]
IC50 (VIM-2; [1]): > 0.01 µM
IC50 (NDM-1; [2]): > 0.01 µM
IC50 (IMP-1; [3]): > 0.01 µM
IC50 (VIM-1; [4]): > 0.01 µM

CC(NS(=O)(=O)c1ccccc1)c1cccc2c(-c3cc(Cl)cc(Cl)c3)c(C(=O)O)[nH]c12 (centres unmarked) [IC-1, 3-(3,5-Dichlorophenyl)-7-(1-(phenylsulfonamido)ethyl)-1H-indole-2-carboxylic acid]
IC50 (VIM-2; [1]): > 0.01 µM
IC50 (NDM-1; [2]): > 0.01 µM
IC50 (IMP-1; [3]): > 0.01 µM
IC50 (VIM-1; [4]): > 0.01 µM

C[C@@H](c1cccc2c(-c3ccc(CS(C)(=O)=O)c(F)c3)c(-c3nnn[nH]3)[nH]c12)N1C[C@]2(C[C@@H](CN)C2)OC1=O [IC-107, (2S,4r)-2-(Aminomethyl)-7-((S)-1-(3-(3-fluoro-4-((methylsulfonyl)methyl)phenyl)-2-(1H-tetrazole-5-yl)-1H-indol-7-yl)ethyl)-5-oxa-7-azaspiro[3.4]octan-6-one]
IC50 (VIM-2; [1]): > 0.01 µM
IC50 (NDM-1; [2]): 0.001 to 0.01 µM
IC50 (IMP-1; [3]): > 0.01 µM
IC50 (VIM-1; [4]): 0.001 to 0.01 µM

CC(c1cccs1)c1cccc2c(-c3ccc(CS(C)(=O)=O)c(F)c3)c(C(=O)O)[nH]c12 (centres unmarked) [IC-4, 3-(3-Fluoro-4-((methylsulfonyl)methyl)phenyl)-7-(1-(thiophen-2-yl)ethyl)-1H-indole-2-carboxylic acid]
IC50 (VIM-2; [1]): 0.001 to 0.01 µM
IC50 (NDM-1; [2]): 0.001 to 0.01 µM
IC50 (IMP-1; [3]): 0.001 to 0.01 µM
IC50 (VIM-1; [4]): 0.001 to 0.01 µM

CC(c1cccc2c(-c3ccc(CS(C)(=O)=O)c(F)c3)c(C(=O)O)[nH]c12)n1cc(CN2CC[C@@H](N)C2)oc1=O (stereo partly drawn) [IC-82, 7-[1-[5-[[(3R)-3-Aminopyrrolidin-1-yl]methyl]-2-oxo-oxazol-3-yl]ethyl]-3-[3-fluoro-4-(methylsulfonylmethyl)phenyl]-1H-indole-2-carboxylic acid]
IC50 (VIM-2; [1]): 0.0001 to 0.001 µM
IC50 (NDM-1; [2]): 0.0001 to 0.001 µM
IC50 (IMP-1; [3]): > 0.01 µM
IC50 (VIM-1; [4]): 0.001 to 0.01 µM

C[C@@H](c1cccc2c(-c3cc(O)nc(O)c3)c(C(=O)O)[nH]c12)N1C[C@]2(C[C@@H](CN)C2)OC1=O [IC-31, 3-(2,6-dihydroxypyridin-4-yl)-7-[(1S)-1-[(2r,4r)-2-(aminomethyl)-6-oxo-5-oxa-7-azaspiro[3.4]octan-7-yl]ethyl]-1H-indole-2-carboxylic acid]
IC50 (VIM-2; [1]): 0.001 to 0.01 µM
IC50 (NDM-1; [2]): 0.001 to 0.01 µM
IC50 (IMP-1; [3]): > 0.01 µM
IC50 (VIM-1; [4]): > 0.01 µM

C[C@@H](c1cccc2cc(C(=O)O)[nH]c12)N1C[C@]2(C[C@@H](CN)C2)OC1=O [IC-30]
IC50 (VIM-2; [1]): > 0.01 µM
IC50 (NDM-1; [2]): > 0.01 µM
IC50 (IMP-1; [3]): > 0.01 µM
IC50 (VIM-1; [4]): > 0.01 µM

CC(Nc1ncc(CCCN)o1)c1cccc2c(-c3ccc(CS(C)(=O)=O)c(F)c3)c(C(=O)O)[nH]c12 (centres unmarked) [IC-93, 7-(1-((5-(3-Aminopropyl)oxazol-2-yl)amino)ethyl)-3-(3-fluoro-4-((methylsulfonyl)methyl)phenyl)-1H-indole-2-carboxylic acid]
IC50 (VIM-2; [1]): 0.001 to 0.01 µM
IC50 (NDM-1; [2]): 0.001 to 0.01 µM
IC50 (IMP-1; [3]): > 0.01 µM
IC50 (VIM-1; [4]): > 0.01 µM

CC(c1cccc2c(-c3ccc(CS(C)(=O)=O)c(F)c3)c(C(=O)O)[nH]c12)n1cc(CO)oc1=O (centres unmarked) [IC-78, 3-(3-Fluoro-4-((methylsulfonyl)methyl)phenyl)-7-(1-(5-(hydroxymethyl)-2-oxooxazol-3(2H)-yl)ethyl)-1H-indole-2-carboxylic acid]
IC50 (VIM-2; [1]): > 0.01 µM
IC50 (NDM-1; [2]): 0.001 to 0.01 µM
IC50 (IMP-1; [3]): > 0.01 µM
IC50 (VIM-1; [4]): > 0.01 µM

CC(c1cccc2c(-c3ccc(CS(C)(=O)=O)c(F)c3)c(C(=O)O)[nH]c12)n1cc(CCCN(C)C)oc1=O (centres unmarked) [IC-75, 7-(1-(5-(3-(Dimethylamino)propyl)-2-oxooxazol-3(2H)-yl)ethyl)-3-(3-fluoro-4-((methylsulfonyl)methyl)phenyl)-1H-indole-2-carboxylic acid]
IC50 (VIM-2; [1]): 0.001 to 0.01 µM
IC50 (NDM-1; [2]): 0.0001 to 0.001 µM
IC50 (IMP-1; [3]): > 0.01 µM
IC50 (VIM-1; [4]): 0.001 to 0.01 µM

CC(c1cccc2c(-c3ccc(CS(C)(=O)=O)c(F)c3)c(C(=O)O)[nH]c12)n1cc(CCC[N+](C)(C)C)oc1=O (centres unmarked) [IC-76, 3-(3-(1-(2-carboxy-3-(3-fluoro-4-((methylsulfonyl)methyl)phenyl)-1H-indol-7-yl)ethyl)-2-oxo-2,3-dihydrooxazol-5-yl)-N,N,N-trimethylpropan-1-aminium]
IC50 (VIM-2; [5]): > 0.01 µM
IC50 (NDM-1): 0.001 to 0.01 µM
IC50 (IMP-1): > 0.01 µM
IC50 (VIM-1; [6]): > 0.01 µM

CC(c1noc(C2CNC(=O)C2)n1)c1cccc2c(-c3ccc(CS(C)(=O)=O)c(F)c3)c(C(=O)O)[nH]c12 (centres unmarked) [IC-63, 3-[3-Fluoro-4-(methylsulfonylmethyl)phenyl]-7-[1-[5-(5-oxopyrrolidin-3-yl)-1,2,4-oxadiazol-3-yl]ethyl]-1H-indole-2-carboxylic acid]
IC50 (VIM-2; [1]): < 0.0001 µM
IC50 (NDM-1; [2]): 0.001 to 0.01 µM
IC50 (IMP-1; [3]): > 0.01 µM
IC50 (VIM-1; [4]): > 0.01 µM

CC(Nc1ncc(CCN)o1)c1cccc2c(-c3ccc(CS(C)(=O)=O)c(F)c3)c(C(=O)O)[nH]c12 (centres unmarked) [IC-94, 7-(1-((5-(2-aminoethyl)oxazol-2-yl)amino)ethyl)-3-(3-fluoro-4-((methylsulfonyl)methyl)phenyl)-1H-indole-2-carboxylic acid]
IC50 (VIM-2; [1]): 0.001 to 0.01 µM
IC50 (NDM-1; [2]): 0.001 to 0.01 µM
IC50 (IMP-1; [3]): > 0.01 µM
IC50 (VIM-1; [4]): > 0.01 µM

C[C@@H](c1cccc2c(N3CCS(=O)(=O)CC3)c(C(=O)O)[nH]c12)N1C[C@]2(C[C@@H](CN)C2)OC1=O [IC-40, 7-((S)-1-((2S,4r)-2-(aminomethyl)-6-oxo-5-oxa-7-azaspiro[3.4]octan-7-yl)ethyl)-3-(1,1-dioxidothiomorpholino)-1H-indole-2-carboxylic acid]
IC50 (VIM-2; [1]): > 0.01 µM
IC50 (NDM-1; [2]): > 0.01 µM
IC50 (IMP-1; [3]): 0.001 to 0.01 µM
IC50 (VIM-1; [4]): > 0.01 µM

CC(c1cccc2c(-c3ccc(CS(C)(=O)=O)c(F)c3)c(C(=O)O)[nH]c12)N1CC(CCCN)OC1=O (single isomer, unassigned) [IC-83, 7-(1-(5-(3-Aminopropyl)-2-oxooxazolidin-3-yl)ethyl)-3-(3-fluoro-4-((methylsulfonyl)methyl)phenyl)-1H-indole-2-carboxylic acid]
IC50 (VIM-2; [1]): 0.001 to 0.01 µM
IC50 (VIM-1; [4]): 0.001 to 0.01 µM
